Assay results: US11554124B2, “Hematopoiesis-enhancing agent” (priority 2018, dated 2023)

Assays:
[1] = system: bone marrow erythroblasts; test: Flow cytometry of bone marrow cells / erythroblast subsets (Ter119/CD71 double staining) of treated mice; format: in vivo, mouse; settings: CLEU 50 mg/body i.p.
Method: Wild-type mice with a genetic background of C57BL/6J were purchased from Charles River Laboratories, Inc. Mice at 8 to 14 weeks of age were used for analysis. For CLEU treatment (50 mg/body), a solution of cycloleucine (CLEU) was prepared by diluting cycloleucine (CLEU) (Sigma) in PBS (50 mg/ml), and 1 ml of the CLEU solution was administered intraperitoneally. For AKBA treatment (2 mg/body), 2 mg AKBA (Enzo Life Sciences)/20% DMSO/1 mL PBS solution was administered intraperitoneally. Vehicle without AKBA was used as a control. For measuring complete blood count of peripheral blood, peripheral blood was collected from facial veins and counted by use of an automated animal blood cell counter (microsemi LC-662). All of the experiments conducted in this study were approved by the Animal Experiment Committee of the Environmental Safety Committee of Tohoku University.
BM cells and spleen cells were harvested in a conventional manner. Cells were stained with combinations of antibodies specific to erythroblasts and mature cells, to thereby identify them. The cells were visualized with antibody and streptavidin-peridinin chlorophyll protein-cyanin 5.5. The antibodies used in this study were as follows: anti-CD3e (145-2C11), anti-CD4 (GK1.5 or RM4.5), anti-CD8a (53-6.7), anti-Gr-1 (RB6-8C5), anti-B220 (RA3-6B2), anti-Ter-119 (TER-119), anti-CD71 (R17217 or C2). Cells were stained with […] (Sigma), and dead cells were excluded from analysis. Flow cytometric analysis and cell sorting were performed according to the manufacturer's protocol using FACS AriaII (BD), and then the obtained data were analyzed using FlowJo software (TreeStar).
Additionally, MAT inhibitor PF9366 (PF) was administered to mice and the effect thereof was investigated. Vehicle (DMSO) (control (Ctrl)) or 10 mM PF9366 (prepared at a concentration of 40 μl/40 ml water) was provided in a drinking bottle (0 h). In addition, 80 μl of vehicle (DMSO) or 80 μl of 10 mM PF9366 dissolved in 1 ml PBS was also administered intraperitoneally at 0 h and 24 h. Analysis was carried out at Day 2 (48 h).
MAT inhibitor 3-acetyl-11-keto-β-boswellic acid (AKBA; 2 mg/body) was intraperitoneally administered to mice at 0 and 24 hours, and analyzed after 48 hours.

[2] = system: BM erythroblast subset II; test: RNA sequencing / RT-PCR of BM erythroblast subset II of treated mice; format: in vivo, mouse
Method: Total RNA was isolated by using the RNeasy kit (Qiagen) from the sorted sample of bone marrow subset II erythroblasts (PBS; n=4, CLEU; n=4). The quality of the isolated RNA ([…]) was checked using a 2100 bioanalyzer (Agilent), and 250 ng of the RNA was used as input for library preparation in accordance with the manufacturer's instructions using the TruSeq Stranded mRNA Library Prep Kit (Illumina). High-throughput sequencing (51 bp, single-ended) was performed using Hiseq2500 Rapid mode v2 (Illumina). Sequenced reads were mapped to the reference mouse genome (mm9) by using bowtie2 version 2.2.5 and tophat version 2.1.0, and then the abundances of transcripts were estimated by using cufflinks version 2.2.1. Gene expression levels were normalized to the average of fragments per kilobase of transcript per million mapped reads (FPKM) value. Individually expressed genes with FPKM>10 and CV<0.5 (under at least one of the two conditions) were used for further analysis (log2 FC<−0.5 or log2 FC>0.5, P<0.05 within each condition).
For the purpose of elucidating the mechanism of the maturation of erythroblasts induced by CLEU treatment, RNA sequencing analysis of BM erythroblast subset II was performed. […] According to previous reports which had shown the contributory role of CD163 and Apoe in erythropoiesis, up-regulation of CD163 and/or Apoe is necessary for proper use of heme and/or lipid membrane synthesis during the maturation of erythroblasts. […] Considering the fact that abnormalities in globin genes cause the maturation defects in erythroblasts in disorders such as thalassemia, up-regulation of these genes, on the other hand, could be the driving force for the final maturation stage of erythroblasts.

[3] = system: human cord blood CD34+ cells; test: In vitro erythroid differentiation of human CD34+ umbilical cord blood cells; format: cell-based; settings: CLEU 2.5 mg/ml, differentiation medium 7 days
Method: Human CD34^+ umbilical cord blood cells were obtained from the Kanto Koshinetsu Block Blood Center (Tokyo, Japan). The use of cord blood samples for research purposes was approved by the Tohoku University Ethics Committee. The technical details of this method have been described previously. Briefly, CD34^+ umbilical cord blood cells were cultured in growth medium for 5 days, and subsequently, the cells (1×10^5/ml) were cultured in differentiation medium for 7 days. For treatment with CLEU, the concentration thereof was 2.5 mg/ml. As the growth medium, StemMACS HSC Expansion Media XF, human (MACS), supplemented with StemMACS HSC Expansion Cocktail, human (MACS) was used. As the differentiation medium, StemSpan SFEM (STEMCELL) supplemented with hSCF (100 ng/ml; Peprotech), hFLT3-L (33.3 ng/ml; Peprotech), hIL3 (13.3 ng/ml; Peprotech), hBMP4 (13.3 ng/ml; Peprotech), hEPO (2.67 IU/ml; Kyowa Kirin Co., Ltd.), and hydrocortisone (1 μM; Sigma) was used.
Finally, the effect of CLEU on in vitro erythroid cell differentiation conditions of human cord blood CD34^+ cells was investigated.

[4] = CLEU, subset II, Day 2, RT-PCR normalized to Actb

NC1(C(=O)O)CCCC1 [CLEU, cycloleucine]
subset from which the increase of erythroblasts was initiated ([1]; Day 2, Ter119/CD71 double staining): initiated from subset II | maturation of erythroblasts ([1]; Day 2, Ter119/CD71 double staining, vs PBS): significantly up-regulated | erythroid cells in BM ([1]; Day 2, flow cytometry, vs PBS): considerable increase | BM cell counts ([1]; femur and tibiae, Day 2, vs PBS): significantly increased | number of genes identified as significantly up-regulated ([2]; CLEU, BM erythroblast subset II, Day 2, RNA sequencing, vs PBS): 72 genes | expression of Gata1, Tal1, and Klf1 ([2]; CLEU, BM erythroblast subset II, Day 2, vs PBS): significantly down-regulated | expression of Myb, Cited2 and H1f0 [2, 4]: significantly up-regulated | expression of hemoglobin-related genes, CD163 and Apoe (validation analysis) [2, 4]: significantly up-regulated | expression levels of several histone methyltransferase ([2]; CLEU, subset II, RNA sequencing): significantly down-regulated | expression of globin genes ([2]; CLEU-treated erythroblasts, subset II, Day 2): most heavily expressed | erythroid differentiation and maturation of human cord blood CD34+ cells [3]: induce not only erythroid differentiation but also maturation
